# Measured values published in patent publication US7598258B2, “Quinoline derivatives and quinazoline derivatives inhibiting autophosphorylation of macrophage colony stimulating factor receptor” (Kirin Beer Kabushiki Kaisha, priority 2002, dated 2009).
# pIC50: −log10 of the molar value.
# Biological target: T1, mouse c-fms (Mus musculus, UniProt P09581)
# T1 construct: Macrophage-like cell line BAC-1.2F5 which expresses c-fms as a M-CSF receptor on cell membranes; endogenous in cells; host or cells: BAC-1.2F5 mouse macrophage-like cell line
# T1 sequence (P09581 20-977): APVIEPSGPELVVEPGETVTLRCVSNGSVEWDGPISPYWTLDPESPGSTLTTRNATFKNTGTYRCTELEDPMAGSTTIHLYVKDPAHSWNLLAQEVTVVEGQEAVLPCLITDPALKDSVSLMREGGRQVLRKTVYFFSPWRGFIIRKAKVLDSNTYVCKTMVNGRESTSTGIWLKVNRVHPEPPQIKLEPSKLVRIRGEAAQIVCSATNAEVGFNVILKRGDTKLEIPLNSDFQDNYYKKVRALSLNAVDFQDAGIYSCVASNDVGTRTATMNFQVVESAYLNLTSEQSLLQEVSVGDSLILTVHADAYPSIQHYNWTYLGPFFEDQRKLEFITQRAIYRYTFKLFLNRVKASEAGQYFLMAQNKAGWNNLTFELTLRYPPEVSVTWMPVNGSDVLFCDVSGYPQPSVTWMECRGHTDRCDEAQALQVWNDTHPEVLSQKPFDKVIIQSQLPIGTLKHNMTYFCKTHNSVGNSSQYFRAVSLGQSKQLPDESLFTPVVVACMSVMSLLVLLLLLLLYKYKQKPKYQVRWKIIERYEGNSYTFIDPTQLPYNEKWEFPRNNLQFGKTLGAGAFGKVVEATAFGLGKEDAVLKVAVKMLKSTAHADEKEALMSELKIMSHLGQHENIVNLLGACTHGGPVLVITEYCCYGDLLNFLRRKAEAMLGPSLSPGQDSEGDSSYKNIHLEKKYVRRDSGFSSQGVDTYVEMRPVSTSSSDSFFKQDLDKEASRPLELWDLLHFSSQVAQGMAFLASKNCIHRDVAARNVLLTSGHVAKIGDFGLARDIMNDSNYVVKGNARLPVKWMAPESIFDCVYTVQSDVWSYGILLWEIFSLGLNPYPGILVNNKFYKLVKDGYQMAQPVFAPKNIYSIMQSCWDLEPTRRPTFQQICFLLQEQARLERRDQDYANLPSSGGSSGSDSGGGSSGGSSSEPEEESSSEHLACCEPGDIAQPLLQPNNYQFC
# Assay: Inhibition of c-fms autophosphorylation in macrophage-like cell line BAC-1.2F5 by M-CSF stimulation (ELISA)
# Format: cell-based
# Conditions: BAC-1.2F5 cells, human recombinant M-CSF 50 ng/ml, read-out: c-fms autophosphorylation 50% inhibitory concentration (IC50)
# Summary of the method: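 BAC-1.2F5 cells serum-starved (0.1% FCS) 12 h, preincubated with compound 1 h at 37° C, then stimulated 6 min with 50 ng/ml human recombinant M-CSF. Lysates captured on anti-phosphotyrosine plates, detected with anti-c-fms antiserum and peroxidase read-out at 450 nm. IC50 from inhibition normalised between ±M-CSF controls.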
row,SMILES,pIC50
1,"COc1cc2nccc(Oc3ccc(NC(=O)NC(C)c4nc(C)cs4)cc3)c2cc1OC (stereo not shown) [Example 91, N-{4-[(6,7-Dimethoxy-4-quinolyl)oxy]phenyl}-N′-[1-(4-methyl-1,3-thiazol-2-yl)ethyl]urea]",8.49
2,"COc1cc2nccc(Oc3ccc(NC(=O)NC(C)c4nc(C)cs4)c(C(F)(F)F)c3)c2cc1OC (stereo not shown) [Example 92, N-[4-[(6,7-Dimethoxy-4-quinolyl)oxy]-2-(trifluoromethyl)phenyl]-N′-[1-(4-methyl-1,3-thiazol-2-yl)ethyl]urea]",8.08
3,"COc1cc2nccc(Oc3cc(C)c(NC(=O)NC(C)c4nc(C)cs4)cc3C)c2cc1OC (stereo not shown) [Example 93, N-{4-[(6,7-Dimethoxy-4-quinolyl)oxy]-2,5-dimethylphenyl}-N′-[1-(4-methyl-1,3-thiazol-2-yl)ethyl]urea]",7.41
4,"COc1cc(Oc2ccnc3cc(OC)c(OC)cc23)ccc1NC(=O)NC(C)c1nc(C)c(C)s1 (stereo not shown) [Example 99, N-{4-[(6,7-Dimethoxy-4-quinolyl)oxy]-2-methoxyphenyl}-N′-[1-(4,5-dimethyl-1,3-thiazol-2-yl)ethyl]urea]",7.90
5,"COc1cc2nccc(Oc3ccc(NC(=O)NC(C)c4ncc(C)s4)cc3)c2cc1OC (stereo not shown) [Example 100, N-{4-[(6,7-Dimethoxy-4-quinolyl)oxy]phenyl}-N′-[1-(5-methyl-1,3-thiazol-2-yl)ethyl]urea]",7.80
6,"COc1cc2nccc(Oc3ccc(NC(=O)NC(C)c4ncc(C)s4)c(F)c3)c2cc1OC (stereo not shown) [Example 101, N-{4-[(6,7-Dimethoxy-4-quinolyl)oxy]-2-fluorophenyl}-N′-[1-(5-methyl-1,3-thiazol-2-yl)ethyl]urea]",7.70
7,"COc1cc2nccc(Oc3ccc(NC(=O)NC(C)c4ncc(C)s4)cc3F)c2cc1OC (stereo not shown) [Example 102, N-{4-[(6,7-Dimethoxy-4-quinolyl)oxy]-3-fluorophenyl}-N′-[1-(5-methyl-1,3-thiazol-2-yl)ethyl]urea]",7.69
8,"COc1cc2nccc(Oc3ccc(NC(=O)NC(C)c4ncc(C)s4)c(C)c3)c2cc1OC (stereo not shown) [Example 103, N-{4-[(6,7-Dimethoxy-4-quinolyl)oxy]-2-methylphenyl}-N′-[1-(5-methyl-1,3-thiazol-2-yl)ethyl]urea]",7.16
9,"COc1cc2nccc(Oc3ccc(NC(=O)NC(C)c4ncc(C)s4)c(C(F)(F)F)c3)c2cc1OC (stereo not shown) [Example 104, N-[4-[(6,7-Dimethoxy-4-quinolyl)oxy]-2-(trifluoromethyl)phenyl]-N′-[1-(5-methyl-1,3-thiazol-2-yl)ethyl]urea]",7.66
10,"COc1cc(Oc2ccnc3cc(OC)c(OC)cc23)ccc1NC(=O)NC(C)c1ncc(C)s1 (stereo not shown) [Example 105, N-{4-[(6,7-Dimethoxy-4-quinolyl)oxy]-2-methoxyphenyl}-N′-[1-(5-methyl-1,3-thiazol-2-yl)ethyl]urea]",7.90
